Patent US20220315895A1, “METHODS OF MAKING OLIGOPOTENT AND UNIPOTENT PRECURSORS” (Transfusion Health, LLC, priority 2019, published 2022)

What was measured:
[1] = test system: CD34+ cells isolated from donor peripheral blood; assay: Enhancement of HSCs derived from non-mobilized peripheral blood with compounds of Formula I (Example 33); format: cell-based; settings: normalized fold change days 2 to 7
Protocol: CD34+ cells were isolated from donor peripheral blood. Standard buffy coat separation using ficoll paque was performed. Cells were pelleted and incubated with unlabeled CD64 antibody. Cells then underwent negative depletion using biotinylated CD2, CD3, CD4, CD5, CD8, CD11b, CD14, CD16, CD19, CD20, CD45RA, CD56, CD235 (in some examples CD15, CD25 and other lineage specific antibodies may also be used). Cells which bind these antibodies are depleted using streptavidin beads. The enriched progenitor pool then undergoes cell sorting for CD34+.
Isolated CD34+ cells were incubated in an in vitro culture media of Alpha MEM without phenol red with 10% (v/v) heat inactivated fetal bovine serum (FBS). When testing compounds of Formula I, two internal controls were used: a positive control (+SF conditions) and a baseline control (i.e. basic conditions (“cytokines only”)). The media components and concentrations used for the compounds tested are described in [0563] Table 2. The culture also included an antibiotic solution that includes penicillin, streptomycin, and amphotericin B to avoid contamination. Controls were included because the amount of expansion in samples obtained varies from individual to individual.
Cultures were incubated at […] (controlled by nitrogen) and 5% CO2.
Small molecule components were added separately and fresh each time the media needs to be refreshed. Cytokines can be stored together. Media renewal should occur at least every few days.
On the days indicated one-half of the volume of the cell culture was removed for data analysis (flow cytometry using a BD FACS ARIA II). The culture volume was replenished with fresh media according to the conditions tested. The data reported accounts for the dilution factor introduced in this procedure.
Separate experiments were performed for each compound tested (Compound 1.001-1.023).
(§1) Table 3, below, summarizes the relative expansive effect of Compound 1.001 to 1.023 (sample compounds) at the indicated concentration. The data in Table 3 is reported as the relative expansive effect. The relative expansive effect is a normalized value of the fold changes shown in each of FIG. 1-FIG. 23. It is calculated as shown below: […]

[2] = test system: CD34+ cells from cord blood; assay: Expansion of cord blood CD34+ cells, seven-day culture (Example 35); format: cell-based, human; settings: normalized fold change days 1 to 7
Protocol: CD34+ cells from cord blood were purchased from STEMCELL Technologies. Primary human CD34+ cells were isolated from cord blood samples using positive immunomagnetic separation techniques. Cells were thawed and gradually brought to room temperature. Samples were washed, then placed in overnight culture in StemSpan with 100 ng/ml each of FLT3L, TPO, SCF, and TL-6. Eighteen to twenty-four hours later (day 1), cells were counted and immunophenotyped (flow cytometry on an Invitrogen Attune N×T cytometer).
Approximately 1000 live cells were plated into each well of 96-well plates; exact cell numbers dispensed per well were quantified with flow cytometry for later calculations.
Media for testing compounds of Formula I was prepared using Alpha MEM without phenol red, 10% (v/v) heat inactivated fetal bovine serum. Culture conditions also included an antibiotic solution that includes penicillin, streptomycin, and amphotericin B to avoid contamination. Additional media components and concentrations used for the compounds tested are described in Table 5.
All incubations for this experiment took place at 3% oxygen (controlled by nitrogen) and 5% CO2. Following seven days of culture, cells from wells were collected and phenotypes were analyzed (flow cytometry on an Invitrogen Attune N×T cytometer).
as §1, with “6” for “3,”, “the screened compounds” for “Compound 1.001 to 1.023 (sample compounds)”, “6” for “3”, “the figures.” for “FIG. 1-FIG. 23.”

CC(C)(C)C(=O)Nc1ccc2c(c1)C(=O)C1CCCC21 (centres unmarked) [Compound 1.001, N-(8-oxo-1,2,3,3a,8,8a-hexahydrocyclopenta[a]inden-6-yl)pivalamide] was tested, and the “CD90 effect (relative expansive effect on CD34+/CD133+/CD90+ cells)” value ([1]; sample compound 0.5 μM) was “++ (0.2 ≤ x < 0.55)” and the “CD133 effect (relative expansive effect on CD34+/CD133+ cells)” value ([1]; sample compound 0.5 μM) was “+ (x < 0.2)”.

In the case of CC(C)(C)C(=O)Nc1ccc2c(c1)C(=O)C1CCCCC21 (centres unmarked) [Compound 1.002, N-(9-oxo-2,3,4,4a,9,9a-hexahydro-1H-fluoren-7-yl)pivalamide], the “CD90 effect (relative expansive effect on CD34+/CD133+/CD90+ cells)” value ([1]; sample compound 16 μM) is reported as “++ (0.2 ≤ x < 0.55)” and the “CD133 effect (relative expansive effect on CD34+/CD133+ cells)” value ([1]; sample compound 16 μM) is reported as “+ (x < 0.2)”.

CC(C)(C)OC(=O)Nc1ccc2c(c1)C(=O)c1ccccc1-2 [Compound 1.003, tert-butyl (9-oxo-9H-fluoren-2-yl)carbamate] was tested, and the “CD90 effect (relative expansive effect on CD34+/CD133+/CD90+ cells)” value ([1]; sample compound 0.5 μM) was “++ (0.2 ≤ x < 0.55)” and the “CD133 effect (relative expansive effect on CD34+/CD133+ cells)” value ([1]; sample compound 0.5 μM) was “++ (0.2 ≤ x < 0.55)”.

With CC(C)(C)Nc1ccc2c(c1)C(=O)c1ccccc1-2 [Compound 1.004, 2-(tert-butylamino)-9H-fluoren-9-one] the “CD90 effect (relative expansive effect on CD34+/CD133+/CD90+ cells)” value ([1]; sample compound 8 μM) was “+++ (0.55 ≤ x < 0.9)” and the “CD133 effect (relative expansive effect on CD34+/CD133+ cells)” value ([1]; sample compound 8 μM) was “++ (0.2 ≤ x < 0.55)”.

For CC(C)(C)C(=O)Nc1ccc2c(c1)C(=O)c1ccccc1-2 [Compound 1.005, N-(9-oxo-9H-fluoren-2-yl)pivalamide], the “CD90 effect (relative expansive effect on CD34+/CD133+/CD90+ cells)” value ([2]; sample compound 0.5 μM) was “++ (1.44 ≤ x < 1.8)”, the “CD133 effect (relative expansive effect on CD34+/CD133+ cells)” value ([2]; sample compound 0.5 μM) was “++ (1.44 ≤ x < 1.8)” and the “CD90 effect (relative expansive effect on CD34+/CD133+/CD90+ cells)” value ([1]; sample compound 0.125 μM) was “+++ (0.55 ≤ x < 0.9)”. The “CD133 effect (relative expansive effect on CD34+/CD133+ cells)” value ([1]; sample compound 0.125 μM) was “++ (0.2 ≤ x < 0.55)”.

CC(C)(C)C(=O)Nc1ccc2c(c1)C(=O)c1c(O)cccc1-2 [Compound 1.006] was tested, and the “CD90 effect (relative expansive effect on CD34+/CD133+/CD90+ cells)” value ([2]; sample compound 2 μM) was “++ (1.44 ≤ x < 1.8)”, the “CD133 effect (relative expansive effect on CD34+/CD133+ cells)” value ([2]; sample compound 2 μM) was “++ (1.44 ≤ x < 1.8)” and the “CD90 effect (relative expansive effect on CD34+/CD133+/CD90+ cells)” value ([1]; sample compound 1 μM) was “++++ (0.9 ≤ x < 1.25)”. The “CD133 effect (relative expansive effect on CD34+/CD133+ cells)” value ([1]; sample compound 1 μM) was “+++ (0.55 ≤ x < 0.9)”.

For CC(C)(C)C(=O)Nc1ccc2c(c1)C(=O)c1cc(O)ccc1-2 [Compound 1.007, N-(7-hydroxy-9-oxo-9H-fluoren-2-yl)pivalamide], the “CD90 effect (relative expansive effect on CD34+/CD133+/CD90+ cells)” value ([2]; sample compound 2 μM) was “++++ (2.16 ≤ x < 2.52)”, the “CD133 effect (relative expansive effect on CD34+/CD133+ cells)” value ([2]; sample compound 2 μM) was “++++ (2.16 ≤ x < 2.52)” and the “CD90 effect (relative expansive effect on CD34+/CD133+/CD90+ cells)” value ([1]; sample compound 4 μM) was “++++ (0.9 ≤ x < 1.25)”. For the same compound, the “CD133 effect (relative expansive effect on CD34+/CD133+ cells)” value ([1]; sample compound 4 μM) was “+++ (0.55 ≤ x < 0.9)”.

For NC(=O)Nc1ccc2c(c1)C(=O)c1cc(NC(N)=O)ccc1-2 [Compound 1.011, 1,1′-(9-oxo-9H-fluorene-2,7-diyl)diurea], the “CD90 effect (relative expansive effect on CD34+/CD133+/CD90+ cells)” value ([1]; sample compound 0.125 μM) was “++ (0.2 ≤ x < 0.55)” and the “CD133 effect (relative expansive effect on CD34+/CD133+ cells)” value ([1]; sample compound 0.125 μM) was “+ (x < 0.2)”.

CC(=O)Nc1ccc2c(c1)C(=O)c1cc(NC(C)=O)ccc1-2 [Compound 1.012, N,N′-(9-oxo-9H-fluorene-2,7-diyl)diacetamide] was tested, and the “CD90 effect (relative expansive effect on CD34+/CD133+/CD90+ cells)” value ([1]; sample compound 0.25 μM) was “++ (0.2 ≤ x < 0.55)” and the “CD133 effect (relative expansive effect on CD34+/CD133+ cells)” value ([1]; sample compound 0.25 μM) was “++ (0.2 ≤ x < 0.55)”.

CC(C)(C)C(=O)Nc1ccc2c(c1)C(=O)c1ccc(O)cc1-2 [Compound 1.016, N-(6-hydroxy-9-oxo-9H-fluoren-2-yl)pivalamide] was tested, and the “CD90 effect (relative expansive effect on CD34+/CD133+/CD90+ cells)” value ([1]; sample compound 16 μM) was “++++ (0.9 ≤ x < 1.25)” and the “CD133 effect (relative expansive effect on CD34+/CD133+ cells)” value ([1]; sample compound 16 μM) was “++ (0.2 ≤ x < 0.55)”.

In the case of CNc1ccc2c(c1)C(O)c1ccccc1-2 (centres unmarked) [Compound 1.018, 2-(methylamino)-9H-fluoren-9-ol], the “CD90 effect (relative expansive effect on CD34+/CD133+/CD90+ cells)” value ([1]; sample compound 4 μM) is reported as “++ (0.2 ≤ x < 0.55)” and the “CD133 effect (relative expansive effect on CD34+/CD133+ cells)” value ([1]; sample compound 4 μM) is reported as “+ (x < 0.2)”.

For O=C1c2ccccc2-c2ccc(F)cc21 [Compound 1.020], the “CD90 effect (relative expansive effect on CD34+/CD133+/CD90+ cells)” value ([1]; sample compound 16 μM) was “++ (0.2 ≤ x < 0.55)” and the “CD133 effect (relative expansive effect on CD34+/CD133+ cells)” value ([1]; sample compound 16 μM) was “++ (0.2 ≤ x < 0.55)”.

With CC(=O)OC1c2ccccc2-c2ccc(NC(=O)C(C)(C)C)cc21 (centres unmarked) [Compound 1.024, 2-pivalamide-9H-fluoren-9-yl acetate] the “CD90 effect (relative expansive effect on CD34+/CD133+/CD90+ cells)” value ([2]; sample compound 8 μM) was “++++ (2.16 ≤ x < 2.52)” and the “CD133 effect (relative expansive effect on CD34+/CD133+ cells)” value ([2]; sample compound 8 μM) was “+++ (1.8 ≤ x < 2.16)”.
